Results reported in patent publication US20240165148A1, “HYALURONIC ACID-CONJUGATED DIPALMITOYL PHOSPHATIDYL ETHANOLAMINE IN COMBINATION WITH NON-STEROIDAL ANTI-INFLAMMATORY DRUGS (NSAIDS) FOR TREATING OR ALLEVIATING INFLAMMATORY DISEASES” (priority 2021, published 2024).
“Also recorded” adds a separate entry of the source.

Assays:
[1] = tested on: LTB4 production in the hippocampus (HC); conditions: LPS-stimulated rats, Student's T test
Experimental: (§1) Male Sprague-Dawley rats were purchased from Harlan laboratories, fed ad libitum and housed in accordance with animal facility guidelines. Animals were assigned 10 each to the 7 groups, in accordance with the treatment protocol described below. Body temperature (BT) was measured at all treatment time-points, to evaluate the effects of drug treatment on the LPS-induced changes in BT. On the second day of the experiment, 2 hours post- drug treatment, rats were sacrificed by decapitation after a short anesthesia (with a mixture of isoflurane-oxygen in air inhalation), blood was collected and brain regions (hypothalamus and hippocampus) immediately extracted. Brain regions were manually homogenized in a PBS solution containing a cocktail of phosphatase/protease inhibitors. Homogenates were centrifuged at 4° C., 10,000 rpm, for 10 minutes. Supernatants were collected and stored at −80° C. for further determination.
(§2) Leukotriene B4 (LTB4) levels were determined in the hypothalamus and hippocampus samples, using commercially available ELISA kits.
(§3) Seven groups of rats, ten rats in each group, were administered treatment intra-peritoneally, according to the following treatment regimens: • 1)- Control group- Animals were treated with vehicle control (NaCl 0.9% 0.2 ml); • 2) LPS: Animals were treated with vehicle control at 6 and 2 hours prior to LPS (1 mg/kg) injection. […]

[2] = tested on: LTB4 production in the hypothalamus (HT); conditions: LPS-stimulated rats, Student's T test
Experimental: as §1, §2, §3

Substance: Di-palmitoyl (C-16) phosphatidyl ethanolamine (DPPE) conjugated to hyaluronic acid (Hy) [HyDPPE]
- Effect on LPS-induced LTB4 production (in words) [1]: counteracted the LPS-induced production of LTB4; also recorded: reversed the increased LTB4 production
- Effect on LPS-induced LTB4 production (in words) [2]: counteracted the LPS-induced production of LTB4
